One series deals with 5XFAD mice. Description: fear conditioning test in 5XFAD mice. The series is classed as in vivo, mouse. As to conditions: 5XFAD mice at 8 months, 10 mg/kg ip daily for 5 months, listed as 1 (PDDC).
Series [1] can be described thus: in vitro metabolic stability, human liver microsomes. The settings on record: pH 7.4. On the technique in general: Liver microsomes are vesicles of endoplasmic reticulum, rich in cytochrome P450 enzymes.
A short description of series [2]: stability studies and metabolite identification in mice and human microsomes. The settings on record: for metabolic stability (in words): mice and human microsomes.
The conditions of series [3]: cited from earlier work.
The conditions of series [4]: cited from earlier work. This is another data set of the same source.

Entries after “also recorded” stand apart in the source; their conditions may differ. Counter-ions that a name gives are not always drawn. Like-named read-outs stand apart in the source and are kept apart here.

Turning to `COc1ccc(-c2c(C)nc3c(N4CC[C@@H](NC(=O)Oc5ccccc5)C4)cc(C)nn23)cc1OC` [Compound 1, Phenyl(R)-(1-(3-(3,4-Dimethoxyphenyl)-2,6-dimethylimidazo[1,2-b]pyridazin-8-yl)pyrrolidin-3-yl)carbamate], in the series on 5XFAD mice, the “contextual fear memory (freezing, day 2)” value is listed as “performed like WT controls”. Further, the share remaining at 1 h, 1 µM in series [1] worked out at 103 ± 14%. For the same compound, in series [2] (human and mouse liver microsomes, Figure S1), the “metabolite identification (MET-ID)” value was “O-demethylated metabolite”. Further, the “metabolic stability (in words)” value in series [2] is given as “generally stable”.

Consider `CC(=O)N[C@@H]1CCN(c2cc(C)nn3c(-c4ccc(OC(F)(F)F)cc4)c(C)nc23)C1` [Compound 47, (R)-N-(1-(2,6-Dimethyl-3-(4-(trifluoromethoxy)-phenyl)imidazo[1,2-b]pyridazin-8-yl)pyrrolidin-3-yl)acetamide], for which the “metabolic stability (in words)” value in series [2] is given as “reasonable metabolic stability”. Still for that read-out and setting: to `COc1ccc(-c2c(C)nc3c(N4CC[C@@H](NC(=O)C(F)(F)F)C4)cc(C)nn23)cc1OC` [Compound 52, (R)-N-(1-(3-(3,4-Dimethoxyphenyl)-2,6-dimethylimidazo[1,2-b]pyridazin-8-yl)pyrrolidin-3-yl)-2,2,2-trifluoroacetamide] belongs “generally stable”; to `CCCCCC(=O)N[C@@H]1CCN(c2cc(C)nn3c(-c4ccc(OC)c(OC)c4)c(C)nc23)C1` [Compound 53, (R)-N-(1-(3-(3,4-Dimethoxyphenyl)-2,6-dimethylimidazo[1,2-b]pyridazin-8-yl)pyrrolidin-3-yl)hexanamide Hydrochloride], “generally stable”.

On to `COc1ccc(-c2c(C)nc3c(N4CC[C@@H](NC(=O)Nc5ccccc5)C4)cc(C)nn23)cc1OC` [Compound 59, (R)-1-(1-(3-(3,4-Dimethoxyphenyl)-2,6-dimethylimidazo[1,2-b]pyridazin-8-yl)pyrrolidin-3-yl)-3-phenylurea], for which the “metabolic stability (in words)” value in series [2] is given as “generally stable”. The same measure, in the same setting: to `COc1ccc(-c2c(C)nc3c(N4CC[C@@H](NS(=O)(=O)C5CC5)C4)cc(C)nn23)cc1OC` [Compound 66, (R)-N-(1-(3-(3,4-Dimethoxyphenyl)-2,6-dimethylimidazo[1,2-b]pyridazin-8-yl)pyrrolidin-3-yl)cyclopropanesulfonamide] belongs “generally stable; also recorded: completely stable”. Consider `COc1ccc(-c2c(C)nc3c(N4CC[C@@H](NS(=O)(=O)c5cccs5)C4)cc(C)nn23)cc1OC` [Compound 73, (R)-N-(1-(3-(3,4-Dimethoxyphenyl)-2,6-dimethylimidazo[1,2-b]pyridazin-8-yl)pyrrolidin-3-yl)thiophene-2-sulfonamide], for which, in series [2], the “metabolic stability (in words)” value is on record as “generally stable; also recorded: completely stable”.

Turning to `COc1ccc(-c2c(C)nc3c(N4CCCC4)cc(C)nn23)cc1OC` [Compound 76c, 3-(3,4-Dimethoxyphenyl)-2,6-dimethyl-8-(pyrrolidin-1-yl)imidazo[1,2-b]pyridazine], the “metabolic stability (in words)” value in series [2] is reported as “metabolically unstable”. For the compound `COc1cc(-c2nc(-c3cccs3)c(-c3ccccc3)[nH]2)cc(OC)c1O` [DPTIP], the “oral bioavailability (in words)” value in series [3] is listed as “not orally bioavailable”. Further, the “brain penetration (in words)” value in series [3] (vs PDDC) is recorded as “poor brain penetration”.

Turning to `O=c1[nH]c(=S)[nH]c(-c2ccccc2)c1Cc1c(O)ccc2ccccc12` [cambinol], in series [4], the “metabolic stability (in words)” value is on record as “poor metabolic stability”.

Source of the values: PMC8025741 (Journal of medicinal chemistry, 2020).
